Reference: ChEMBL document CHEMBL1614632, “Trend analysis of a database of intravenous pharmacokinetic parameters in humans for 670 drug compounds” (Drug Metab Dispos, 2008)
Square brackets hold non-standard residues; d marks the D form. Peptide text beside a SMILES is read from it. dPhe(4-Cl) = N[C@H](Cc1ccc(Cl)cc1)C(=O)O; d2Nal = N[C@H](Cc1ccc2ccccc2c1)C(=O)O; dCit = NC(=O)NCCC[C@@H](N)C(=O)O; d3Pal = N[C@H](Cc1cccnc1)C(=O)O

Columns and labels:
clinical [1] = conditions: human, in vivo, iv, Vdss
clinical [2] = conditions: human, in vivo, iv, CL
clinical [3] = conditions: human, in vivo, iv
clinical [4] = conditions: human, in vivo, iv; remark: listed apart in the source
clinical [5] = conditions: human, in vivo, iv, t1/2

| Structure (SMILES) | Vd (clinical [1]) [L/kg] | clearance (clinical [2]) [mL/min/kg] | fraction unbound (clinical [3]) | MRT (clinical [4]) [h] | half-life (clinical [5]) [h] |
| --- | --- | --- | --- | --- | --- |
| Cc1nnc2n1-c1sc(Br)cc1C(c1ccccc1Cl)=NC2 [BROTIZOLAM] | 0.75 | 2 | 0.092 | 6 | 4.8 |
| CC(=O)OCC1=C(C(=O)O)N2C(=O)[C@@H](NC(=O)CSc3ccncc3)[C@H]2SC1 [CEPHAPIRIN] | 0.13 | 2.7 | 0.55 | 0.8 | 1.2 |
| CCCC(C)C1(CC)C(=O)NC(=O)NC1=O (stereo not given) [PENTOBARBITAL] | 0.91 | 0.47 | 0.39 | 32 | 22 |
| CC(NCCc1ccc(O)cc1)C(O)c1ccc(O)cc1 (stereo not given) [RITODRINE] | 4.4 | 31 | 0.64 | 2.4 | 2.6 |
| CCOc1ccc2ccccc2c1C(=O)N[C@@H]1C(=O)N2[C@@H]1SC(C)(C)[C@@H]2C(=O)O [NAFCILLIN] | 0.22 | 3.3 | 0.13 | 1.1 | 0.7 |
| NS(=O)(=O)c1cc(C(=O)O)cc(N2CCCC2)c1Oc1ccccc1 [PIRETANIDE] | 0.17 | 3.1 | 0.058 | 0.91 | 1.3 |
| C=CCC1(C(C)C#CCC)C(=O)N=C(O)N(C)C1=O (stereo not given) [METHOHEXITAL] | 1.1 | 12 | 0.27 | 1.5 | 1.6 |
| C[C@H](O)C(=O)Nc1c(I)c(C(=O)NC(CO)CO)c(I)c(C(=O)NC(CO)CO)c1I [IOPAMIDOL] | 0.28 | 1.9 | 1 | 2.5 | 2.1 |
| CC(=O)N(CC(O)CO)c1c(I)c(C(=O)NCC(O)CO)c(I)c(C(=O)NCC(O)CO)c1I (stereo not given) [IOHEXOL] | 0.16 | 2 | 1 | 1.3 | 1.5 |
| CC(=O)Nc1c(I)c(C(=O)O)c(I)c(N(C)C(C)=O)c1I [METRIZOIC ACID] | 0.17 | 2.7 | 1 | 1 | 1.3 |
| CCOC(=O)C1(c2ccccc2)CCC=CC1N(C)C (stereo not given) [TILIDINE] | 4 | 16 | 0.21 | 4.2 | 5 |
| COc1ccc2c(c1)c(CC(=O)O)c(C)n2C(=O)c1ccc(Cl)cc1 [INDOMETHACIN] | 0.096 | 1.3 | 0.01 | 1.2 | 1.4 |
| O=C1c2c(O)ccc(O)c2C(=O)c2c(NCCNCCO)ccc(NCCNCCO)c21 [MITOXANTRONE] | 12 | 7.9 | 0.25 | 25 | 53 |
| O=C1OC2(c3ccc(O)cc3Oc3cc(O)ccc32)c2ccccc21 [FLUORESCEIN] | 0.14 | 1.3 | 0.11 | 1.8 | 1.6 |
| CN1C[C@H](C(=O)N[C@]2(C)O[C@@]3(O)[C@@H]4CCCN4C(=O)[C@H](Cc4ccccc4)N3C2=O)C=C2c3cccc4[nH]cc(c34)C[C@H]21 [ERGOTAMINE] | 3.6 | 15 | 0.02 | 4 | 2.1 |
| Nc1nc(/C(=N/O)C(=O)N[C@@H]2C(=O)N3C(C(=O)O)=C(/C=C4\CCN([C@@H]5CCNC5)C4=O)CS[C@H]23)ns1 [CEFTOBIPROLE] | 0.27 | 1.5 | 0.62 | 3 | 3.3 |
| Cc1cccc(C)c1OCC(C)N (stereo not given) [MEXILETINE] | 5.9 | 8.3 | 0.36 | 12 | 9.9 |
| COc1cc([C@@H]2c3cc4c(cc3C(OC3OC5COC(C)OC5C(O)C3N)C3COC(=O)[C@@H]32)OCO4)cc(OC)c1O (stereo not given in full) [NK-611] | 0.3 | 0.4 | 0.013 | 17 | 14 |
| CO[C@@]1(NC(=O)CSCC#N)C(=O)N2C(C(=O)O)=C(CSc3nnnn3C)CS[C@@H]21 [CEFMETAZOLE] | 0.13 | 1.5 | 0.15 | 1.5 | 1.5 |
| COCC(=O)Nc1c(I)c(C(=O)NCC(O)CO)c(I)c(C(=O)N(C)CC(O)CO)c1I (stereo not given) [IOPROMIDE] | 0.22 | 1.4 | 0.99 | 2.6 | 2.6 |

| Structure (SMILES) | Vd (clinical [1]) [L/kg] | clearance (clinical [2]) [mL/min/kg] | fraction unbound (clinical [3]) | MRT (clinical [4]) [h] | half-life (clinical [5]) [h] |
| --- | --- | --- | --- | --- | --- |
| CC1(C)C(/C=C/C=C/C=C/C=C2/N(CCCCS(=O)(=O)[O-])c3ccc4ccccc4c3C2(C)C)=[N+](CCCCS(=O)(=O)[O-])c2ccc3ccccc3c21.[Na+] [INDOCYANINE GREEN] | 0.035 | 6.8 | 0.05 | 0.086 | 0.065 |
| Nc1nc(N)c2nc(-c3ccccc3)c(N)nc2n1 | 13 | 63 | 0.42 | 3.4 | 4.3 |
| CC(=O)N[C@@H](CS)C(=O)O [ACETYLCYSTEINE] | 0.55 | 3.1 | 0.17 | 3 | 5.5 |
| CC1(C)S[C@@H]2[C@H](NC(=O)C(c3ccccc3)S(=O)(=O)O)C(=O)N2[C@H]1C(=O)O (stereo not given in full) [SULBENICILLIN] | 0.15 | 1.6 | 0.5 | 1.6 | 1.2 |
| OCCN1CCN(CCCN2c3ccccc3Sc3ccc(Cl)cc32)CC1 [PERPHENAZINE] | 18 | 27 | 0.07 | 11 | 9.4 |
| CO/N=C(\C(=O)N[C@@H]1C(=O)N2C(C(=O)O)=C(CSc3nc(C)c(CC(=O)O)s3)CS[C@H]12)c1csc(N)n1 [CEFODIZIME] | 0.054 | 0.61 | 0.18 | 1.5 | 4.2 |
| CCC[C@@H]1C[C@@H](C(=O)N[C@@H]([C@H]2O[C@H](SC)[C@H](O)[C@@H](O)[C@H]2O)[C@@H](C)O)N(C)C1 [LINCOMYCIN] | 1 | 2.1 | 0.14 | 7.5 | 5.6 |
| CN1C(=O)NC(=O)C(C)(C2=CCCCC2)C1=O (stereo not given) [HEXOBARBITAL] | 1.1 | 3.4 | 0.53 | 5.4 | 4.9 |
| O=C(Cc1cccs1)N[C@@H]1C(=O)N2C(C(=O)[O-])=C(C[n+]3ccccc3)CS[C@H]12 [CEPHALORIDINE] | 0.46 | 3.3 | 0.8 | 2.3 | 1.5 |
| CC(=O)N[C@H](Cc1ccc2ccccc2c1)C(=O)N[C@H](Cc1ccc(Cl)cc1)C(=O)N[C@H](Cc1cccnc1)C(=O)N[C@@H](CO)C(=O)N[C@@H](Cc1ccc(O)cc1)C(=O)N[C@H](CCCNC(N)=O)C(=O)N[C@@H](CC(C)C)C(=O)N[C@@H](CCCNC(=N)N)C(=O)N1CCC[C@H]1C(=O)N[C@H](C)C(N)=O [CETRORELIX] (Ac-[d2Nal][dPhe(4-Cl)][d3Pal]SY[dCit]LRP[dA]-NH2) | 0.39 | 1.2 | 0.14 | 5.4 | 12 |
| CC(=O)O[C@@]12CO[C@@H]1C[C@H](O)[C@@]1(C)C(=O)[C@H](O)C3=C(C)[C@@H](OC(=O)[C@H](O)[C@@H](NC(=O)OC(C)(C)C)c4ccccc4)C[C@@](O)([C@@H](OC(=O)c4ccccc4)[C@H]21)C3(C)C.O.O.O [DOCETAXEL] | 2.1 | 14 | 0.04 | 2.5 | 11 |
| Cc1ccc(C(=O)Nc2ccc(S(=O)(=O)O)c3cc(S(=O)(=O)O)cc(S(=O)(=O)O)c23)cc1NC(=O)c1cccc(NC(=O)Nc2cccc(C(=O)Nc3cc(C(=O)Nc4ccc(S(=O)(=O)O)c5cc(S(=O)(=O)O)cc(S(=O)(=O)O)c45)ccc3C)c2)c1 [SURAMIN] | 0.54 | 0.0057 | 0.001 | 1400 | 1200 |
| CC(Oc1ccccc1)C(=O)N[C@@H]1C(=O)N2[C@@H]1SC(C)(C)[C@@H]2C(=O)O (stereo not given in full) [PHENETHICILLIN] | 0.3 | 4.2 | 0.25 | 1.2 | 0.91 |
| CN[C@@H]1C[C@H]2O[C@@](C)([C@@H]1OC)n1c3ccccc3c3c4c(c5c6ccccc6n2c5c31)C(=O)N[C@@H]4O | 0.15 | 0.0037 | 0.0022 | 680 | 790 |
| Nc1nc(NC2CC2)c2ncn([C@H]3C=C[C@@H](CO)C3)c2n1 [ABACAVIR] | 0.84 | 13 | 0.5 | 1.1 | 1 |
| CNC1(c2ccccc2Cl)CCCCC1=O (stereo not given) [KETAMINE] | 2.9 | 19 | 0.47 | 2.5 | 2.8 |
| CCN(CC)CCS(=O)(=O)[C@@H]1CCN2C(=O)c3coc(n3)CC(=O)C[C@H](O)/C=C(C)/C=C/CNC(=O)/C=C/[C@@H](C)[C@@H](C(C)C)OC(=O)[C@@H]12 [DALFOPRISTIN] | 0.39 | 16 | 0.82 | 0.41 | 0.74 |
| CO/N=C(\C(=O)N[C@@H]1C(=O)N2C(C(=O)O)=C(C)CS[C@H]12)c1csc(N)n1 | 0.28 | 1.9 | 0.78 | 2.5 | 2.1 |
| Nc1cc(-c2ccncc2)c[nH]c1=O [INAMRINONE] | 1.3 | 8.9 | 0.89 | 2.4 | 2 |
| CO/N=C(\C(=O)N[C@@H]1C(=O)N2C(C(=O)O)=C(COC(C)=O)CS[C@H]12)c1csc(N)n1 [CEFOTAXIME] | 0.19 | 2.7 | 0.6 | 1.2 | 1.2 |
